Assay results from patent US20210169892A1, “MODULATORS OF THE INTEGRATED STRESS PATHWAY” (Calico Life Sciences LLC, priority 2017, published 2021).

Tested on: HEK293T cells carrying the ATF4 luciferase reporter
Assay: ATF4-Luc assay (in vitro model of vanishing white matter disease)
Type: cell-based
Conditions: Homo sapiens, HEK-293T; HEK293T cells with ATF4 luciferase reporter, 1 μg/mL tunicamycin, 7 hours, One Glo luminescence
How it was run: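 Compound at 200 nM and tunicamycin at 1 μg/mL were given together for 7 h to HEK293T cells stably transduced with an ATF4 5′-UTR-driven firefly luciferase reporter. Read-out by luminescence, reported as EC50.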

Row | SMILES | EC50 [nM]
1 | Cc1ccc(C(=O)N2CC(C(=O)NC34CC(NC(=O)COc5ccc(Cl)c(F)c5)(C3)C4)Oc3ccc(Cl)cc32)o1 (stereo not drawn) [Compound 145, 6-chloro-N-{3-[2-(4-chloro-3-fluorophenoxy)acetamido]bicyclo[1.1.1]pentan-1-yl}-4-(5-methylfuran-2-carbonyl)-3,4-dihydro-2H-1,4-benzoxazine-2-carboxamide] | 50 to 250
2 | O=C(COc1ccc(Cl)c(F)c1)NC12CC(NC(=O)C3Oc4ccccc4NC3=O)(C1)C2 (stereo not drawn) [Compound 109, N-{3-[2-(4-chloro-3-fluorophenoxy)acetamido]bicyclo[1.1.1]pentan-1-yl}-3-oxo-3,4-dihydro-2H-1,4-benzoxazine-2-carboxamide] | 500 to 2000
3 | O=C(COc1ccc(Cl)c(F)c1)NC12CCC(NC(=O)C3CCc4cc(Cl)ccc4O3)(CC1)[C@@H](O)C2 (stereo partly drawn) [Compound 203, 6-chloro-N-{(2S)-4-[2-(4-chloro-3-fluorophenoxy)acetamido]-2-hydroxybicyclo[2.2.2]octan-1-yl}-3,4-dihydro-2H-1-benzopyran-2-carboxamide] | < 10
4 | O=C(COc1ccc(Cl)c(F)c1)NC12CC(NC(=O)C3CN(C(=O)C4CCOC4)c4cc(Cl)ccc4O3)(C1)C2 (stereo not drawn) [Compound 152, 6-chloro-N-{3-[2-(4-chloro-3-fluorophenoxy)acetamido]bicyclo[1.1.1]pentan-1-yl}-4-(oxolane-3-carbonyl)-3,4-dihydro-2H-1,4-benzoxazine-2-carboxamide] | 250 to 500
5 | O=C(COc1ccc(Cl)c(F)c1)NC12CC(NC(=O)C3CN(C(=O)C(F)(F)C(F)F)c4cc(Cl)ccc4O3)(C1)C2 (stereo not drawn) [Compound 161, 6-chloro-N-{3-[2-(4-chloro-3-fluorophenoxy)acetamido]bicyclo[1.1.1]pentan-1-yl}-4-(2,2,3,3-tetrafluoropropanoyl)-3,4-dihydro-2H-1,4-benzoxazine-2-carboxamide] | < 10
6 | O=C(COc1ccc(Cl)c(F)c1)NC12CC(NC(=O)C3CC(=O)c4cc(Cl)ccc4O3)(C1)C2 (stereo not drawn) [Compound 186, 6-chloro-N-{3-[2-(4-chloro-3-fluorophenoxy)acetamido]bicyclo[1.1.1]pentan-1-yl}-4-oxo-3,4-dihydro-2H-1-benzopyran-2-carboxamide] | < 10
7 | NS(=O)(=O)c1ccc(S(=O)(=O)N2CC(C(=O)NC34CC(NC(=O)COc5ccc(Cl)c(F)c5)(C3)C4)Oc3ccc(Cl)cc32)cc1 (stereo not drawn) [Compound 174, 6-chloro-N-{3-[2-(4-chloro-3-fluorophenoxy)acetamido]bicyclo[1.1.1]pentan-1-yl}-4-(4-sulfamoylbenzene-1-sulfonyl)-3,4-dihydro-2H-1,4-benzoxazine-2-carboxamide] | 50 to 250
8 | O=C(COc1ccc(Cl)c(F)c1)NC12CCC(NC(=O)C3Oc4ccccc4O3)(CC1)CC2 [Compound 100, N-{4-[2-(4-chloro-3-fluorophenoxy)acetamido]bicyclo[2.2.2]octan-1-yl}-2H-1,3-benzodioxole-2-carboxamide] | > 2000
9 | O=C(O)CC1c2ccccc2CCN1C(=O)NC12CC(NC(=O)COc3ccc(Cl)c(F)c3)(C1)C2 (stereo not drawn) [Compound 155, [2-({3-[2-(4-chloro-3-fluorophenoxy)acetamido]bicyclo[1.1.1]pentan-1-yl}carbamoyl)-1,2,3,4-tetrahydroisoquinolin-1-yl]acetic Acid] | > 2000
10 | CS(=O)(=O)N1CC(C(=O)NC23CC(NC(=O)COc4ccc(Cl)c(F)c4)(C2)C3)Oc2ccc(Cl)cc21 (stereo not drawn) [Compound 168, 6-chloro-N-{3-[2-(4-chloro-3-fluorophenoxy)acetamido]bicyclo[1.1.1]pentan-1-yl}-4-(methanesulfonyl)-3,4-dihydro-2H-1,4-benzoxazine-2-carboxamide] | 50 to 250
11 | CN1C[C@@H](C(=O)NC23CCC(NC(=O)COc4ccc(Cl)c(F)c4)(CC2)[C@@H](O)C3)Oc2ccc(Cl)cc21 [Compound 107, 6-chloro-N-{(3S)-4-[2-(4-chloro-3-fluorophenoxy)acetamido]-3-hydroxybicyclo[2.2.2]octan-1-yl}-4-methyl-3,4-dihydro-2H-1,4-benzoxazine-2-carboxamide] | < 10
12 | CC(C)(C)OC(=O)CN1C[C@@H](C(=O)NC23CCC(NC(=O)COc4ccc(Cl)c(F)c4)(CC2)C(O)C3)Oc2ccc(Cl)cc21 (stereo in doubt) [Compound 184, tert-butyl [(2S)-6-chloro-2-({(3S)-4-[2-(4-chloro-3-fluorophenoxy)acetamido]-3-hydroxybicyclo[2.2.2]octan-1-yl}carbamoyl)-2,3-dihydro-4H-1,4-benzoxazin-4-yl]acetate] | 250 to 500
13 | O=C(COc1ccc(Cl)c(F)c1)NC12CCC(NC(=O)C3CCc4cc(F)ccc4O3)(CC1)[C@@H](O)C2 (stereo partly drawn) [Compound 200, N-{(2S)-4-[2-(4-chloro-3-fluorophenoxy)acetamido]-2-hydroxybicyclo[2.2.2]octan-1-yl}-6-fluoro-3,4-dihydro-2H-1-benzopyran-2-carboxamide] | < 10
14 | O=C(COc1ccc(Cl)c(F)c1)NC12CC(NC(=O)[C@@H]3CN(C(=O)[C@H]4C[C@H]4F)c4cc(Cl)ccc4O3)(C1)C2 (single isomer, unassigned) [Compound 144] | 50 to 250
15 | O=C(COc1ccc(Cl)c(F)c1)NC12CC(NC(=O)C3CNc4cc(F)c(F)cc4O3)(C1)C2 (stereo not drawn) [Compound 108, N-{3-[2-(4-chloro-3-fluorophenoxy)acetamido]bicyclo[1.1.1]pentan-1-yl}-6,7-difluoro-3,4-dihydro-2H-1,4-benzoxazine-2-carboxamide] | < 10
16 | COC(=O)CNC1CC(C(=O)NC23CC(NC(=O)COc4ccc(Cl)c(F)c4)(C2)C3)Oc2ccc(Cl)cc21 (stereo not drawn) [Compound 189, methyl {[6-chloro-2-({3-[2-(4-chloro-3-fluorophenoxy)acetamido]bicyclo[1.1.1]pentan-1-yl}carbamoyl)-3,4-dihydro-2H-1-benzopyran-4-yl]amino}acetate] | 10 to 50
17 | O=C(COc1ccc(Cl)c(F)c1)NC12CCC(NC(=O)[C@@H]3CCc4cc(F)ccc4O3)(CC1)C[C@@H]2O [Compound 105, (2S)—N-{(3S)-4-[2-(4-chloro-3-fluorophenoxy)acetamido]-3-hydroxybicyclo[2.2.2]octan-1-yl}-6-fluoro-3,4-dihydro-2H-1-benzopyran-2-carboxamide] | < 10
18 | O=C(COc1ccc(Cl)c(F)c1)NC12CC(NC(=O)C3CN(C(=O)CC(F)(F)C(F)(F)F)c4cc(Cl)ccc4O3)(C1)C2 (stereo not drawn) [Compound 141, 6-chloro-N-{3-[2-(4-chloro-3-fluorophenoxy)acetamido]bicyclo[1.1.1]pentan-1-yl}-4-(3,3,4,4,4-pentafluorobutanoyl)-3,4-dihydro-2H-1,4-benzoxazine-2-carboxamide] | 10 to 50
19 | O=C(COc1ccc(Cl)c(F)c1)NC12CC(NC(=O)[C@H]3Cc4ccccc4N3)(C1)C2 [Compound 128, (2R)—N-{3-[2-(4-chloro-3-fluorophenoxy)acetamido]bicyclo[1.1.1]pentan-1-yl}-2,3-dihydro-1H-indole-2-carboxamide] | 50 to 250
20 | CCOCCS(=O)(=O)N1CC(C(=O)NC23CC(NC(=O)COc4ccc(Cl)c(F)c4)(C2)C3)Oc2ccc(Cl)cc21 (stereo not drawn) [Compound 139, 6-chloro-N-{3-[2-(4-chloro-3-fluorophenoxy)acetamido]bicyclo[1.1.1]pentan-1-yl}-4-(2-ethoxyethanesulfonyl)-3,4-dihydro-2H-1,4-benzoxazine-2-carboxamide] | 50 to 250
21 | O=C(COc1ccc(Cl)c(F)c1)NC12CCC(NC(=O)[C@H]3COc4ccccc4O3)(CC1)[C@@H](O)C2 [Compound 126, (2R)—N-{(2S)-4-[2-(4-chloro-3-fluorophenoxy)acetamido]-2-hydroxybicyclo[2.2.2]octan-1-yl}-2,3-dihydro-1,4-benzodioxine-2-carboxamide] | < 10
22 | O=C(COc1ccc(Cl)c(F)c1)NC12CC(NC(=O)C3CN(C(=O)[C@H]4C[C@@H]4F)c4cc(Cl)ccc4O3)(C1)C2 (stereo partly drawn) [Compound 138, 6-chloro-N-{3-[2-(4-chloro-3-fluorophenoxy)acetamido]bicyclo[1.1.1]pentan-1-yl}-4-[(1R,2S)-2-fluorocyclopropane-1-carbonyl]-3,4-dihydro-2H-1,4-benzoxazine-2-carboxamide] | 250 to 500
23 | COC(C)(C)CN1CC(C(=O)NC23CC(NC(=O)COc4ccc(Cl)c(F)c4)(C2)C3)Oc2ccc(Cl)cc21 (stereo not drawn) [Compound 187, 6-chloro-N-{3-[2-(4-chloro-3-fluorophenoxy)acetamido]bicyclo[1.1.1]pentan-1-yl}-4-(2-methoxy-2-methylpropyl)-3,4-dihydro-2H-1,4-benzoxazine-2-carboxamide] | 10 to 50
24 | CC1(C(=O)N2CC(C(=O)NC34CC(NC(=O)COc5ccc(Cl)c(F)c5)(C3)C4)Oc3ccc(Cl)cc32)CC1(F)F (stereo not drawn) [Compound 179, 6-chloro-N-{3-[2-(4-chloro-3-fluorophenoxy)acetamido]bicyclo[1.1.1]pentan-1-yl}-4-(2,2-difluoro-1-methylcyclopropane-1-carbonyl)-3,4-dihydro-2H-1,4-benzoxazine-2-carboxamide] | 500 to 2000
25 | O=C(O)CCN1CC(C(=O)NC23CC(NC(=O)COc4ccc(Cl)c(F)c4)(C2)C3)Oc2ccc(Cl)cc21 (stereo not drawn) [Compound 170, 3-[6-chloro-2-({3-[2-(4-chloro-3-fluorophenoxy)acetamido]bicyclo[1.1.1]pentan-1-yl}carbamoyl)-2,3-dihydro-4H-1,4-benzoxazin-4-yl]propanoic acid] | 250 to 500
26 | C[C@@]1(C(=O)NC23CC(NC(=O)COc4ccc(Cl)c(F)c4)(C2)C3)COc2cc3c(cc21)OC(F)(F)O3 [Compound 130, (7S)—N-{3-[2-(4-chloro-3-fluorophenoxy)acetamido]bicyclo[1.1.1]pentan-1-yl}-2,2-difluoro-7-methyl-6,7-dihydro-2H-furo[2,3-f][1,3]benzodioxole-7-carboxamide] | > 2000
27 | O=C(COc1ccc(Cl)c(F)c1)NC12CC(NC(=O)[C@H]3COc4ccccc4O3)(C1)C2 [Compound 124, (2R)—N-{3-[2-(4-chloro-3-fluorophenoxy)acetamido]bicyclo[1.1.1]pentan-1-yl}-2,3-dihydro-1,4-benzodioxine-2-carboxamide] | 10 to 50
